Results: patent publication US12404252B2, “Salt of 2-amino-2-(2-(1-decyl-1H-1,2,3-triazol-4-yl)ethyl)propane-1,3-diol, and pharmaceutical composition containing same” (NEXTGEN BIOSCIENCE CO., LTD, priority 2021, dated 2025)
Entries after “also recorded” stand apart in the source; their conditions may differ.

What was measured:
[1] = Hygroscopicity test by DVS; type: physicochemical
Excerpt: Dynamic vapor sorption (DVS) is a method that has been used for a long time to investigate the interactions between active pharmaceutical ingredients (APIs), and pharmaceutical preparations and water. Here, to analyze the water absorption rate of a sample at a specific temperature, measurements are made by exposing the sample to the desired relative humidity using a DVS water sorption analyzer (hygroscopicity analyzer) until the change in weight of the sample stabilizes.

[2] = Standard stock solution stability, 40° C./75±5% RH; type: physicochemical; details: 40° C./75% RH
Protocol: The stability of the crystalline compound was examined at 40° C./75±5% RH. Physical stability was examined through comparative XRPD analysis before and after the test, and chemical stability was examined by HPLC method. The experimental conditions used in the stability test for Compound 1a and the test results are as follows.
40° C./75±5% RH: Conditions in which the vial was open and upright.
A required amount (˜1 mg) of solid material was dissolved in 1 mL of a diluent (1:1 methanol/water), and the prepared solution was analyzed by HPLC.

[3] = pH stability and salinity stability, 40±2° C.; type: physicochemical
Protocol: pH and salinity stability tests for the hemifumirate salt of Compound 1 were performed at an initial target concentration of 2 mg/mL. The pH and salinity stability conditions used to evaluate the hemifumirate salt of Compound 1 and the evaluation results are as follows.
• 40±2° C.: Conditions in which the vial was capped and upright • Storage container for stability: 2-mL screw neck clear glass vial (manufactured by La-Pha-Pack) • Target concentration: ˜ 2 mg/mL (adding the sample to 1 mL of medium, followed by vortexing for 30 seconds) • 500 μL of the test mixture was dissolved in 500 μL of a diluent (1:1 methanol/water), and the prepared solution was analyzed by HPLC without filtration.

Photostability test = type: physicochemical
Protocol: For a photostability test, 10 mg of Compound 1a was exposed to 1.2 million lux hours of ultraviolet and visible light at room temperature. For an oxidation stability test, 0.2 mL of 30% H2O2 and 1 mg of Compound 1a were placed in a 2-mL vial and stored at 25° C. for up to 24 hours. The photostability and oxidation stability conditions used to evaluate the fumarate salt of Compound 1 and the evaluation results are as follows.

[4] = test system: dextran sulfate sodium (DSS)-induced colitis model; experiment: DSS-induced colitis mouse model, disease activity index; type: in vivo; details: DSS mice
Protocol: The effectiveness of Compound 1a against inflammatory bowel disease was evaluated using the dextran sulfate sodium (DSS)-induced colitis model. In the mouse model, inflammatory bowel disease was induced by administering DSS to mice at a concentration of 2.5% via drinking water. Mice were divided into a test group administered Compound 1a, a positive control group administered ozanimod or MTX (methotrexate), a vehicle group, and a normal control group, and each group had n=10. Compound 1, a compound of the present invention, was orally administered at doses of 5 and 10 mg/kg once a day for 7 days to the inflammatory bowel disease-induced model, and ozanimod as a positive control was administered orally at a dose of 5 mg/kg once a day, and MTX (methotrexate) as a positive control was administered intraperitoneally at a dose of 3 mg/kg three times a week.
DAI represents the total score of weight loss relative to initial weight, stool consistency, and degree of intestinal bleeding of the mouse. The criteria for calculation of DAI are shown in Table 10 below, and DAI was evaluated on days 0, 1, 2, 3, 4, 5, 6, 7, and 8.

[5] = test system: unilateral ureteral obstruction (UUO) model; experiment: Unilateral ureteral obstruction (UUO) renal fibrosis model; type: in vivo; details: UUO mice, 2 weeks
Protocol: The antifibrotic effect of Compound 1a in renal disease was evaluated using the unilateral ureteral obstruction (UUO) model, which is a renal fibrotic disease model. Kidney fibrosis was induced by unilateral ureteral obstruction of mice, and then Compound 1a at 10, 30, and 90 mg/kg/day and the positive control substance telmisartan at 30 mg/kg/day were orally administered to the mice once a day for 2 weeks.

[6] = test system: adenine-induced chronic kidney disease model; experiment: Adenine-induced chronic kidney disease model; type: in vivo; details: adenine-induced CKD mice, 3 weeks
Protocol: The antifibrotic effect of Compound 1a was evaluated using an adenine-induced chronic kidney disease model. 0.5% adenine (in 0.5% CMC) was orally administered to mice for 4 weeks to induce chronic kidney disease, and Compound 1a at 10, 30, and 90 mg/kg/day and the positive control substance telmisartan 10 mg/kg/day were administered orally to the mice for 3 weeks, followed by measurement of serum creatinine, serum BUN, and kidney hydroxyproline, and histopathology. In addition, the tubular-interstitial index value was determined based on the above measurement results.

[7] = test system: alopecia areata model (C3H/HeJ); experiment: Alopecia areata model (C3H/HeJ); type: in vivo; details: C3H/HeJ mice, 30 mg/kg orally, 12 weeks
Protocol: The efficacy of Compound 1a against alopecia areata was evaluated using a model (C3H/HeJ) with spontaneous alopecia areata. The C3H/HeJ mice used in the test are animals that spontaneously develop alopecia areata with increasing age. […] 30 mg/kg of Compound 1a was administered orally to the mice for 12 weeks, and then disease-free ratio and AA lesion area were measured.

[8] = biological target: hERG potassium ion channel (Homo sapiens, UniProt Q12809)
hERG potassium ion channel, sequence (Q12809 whole entry): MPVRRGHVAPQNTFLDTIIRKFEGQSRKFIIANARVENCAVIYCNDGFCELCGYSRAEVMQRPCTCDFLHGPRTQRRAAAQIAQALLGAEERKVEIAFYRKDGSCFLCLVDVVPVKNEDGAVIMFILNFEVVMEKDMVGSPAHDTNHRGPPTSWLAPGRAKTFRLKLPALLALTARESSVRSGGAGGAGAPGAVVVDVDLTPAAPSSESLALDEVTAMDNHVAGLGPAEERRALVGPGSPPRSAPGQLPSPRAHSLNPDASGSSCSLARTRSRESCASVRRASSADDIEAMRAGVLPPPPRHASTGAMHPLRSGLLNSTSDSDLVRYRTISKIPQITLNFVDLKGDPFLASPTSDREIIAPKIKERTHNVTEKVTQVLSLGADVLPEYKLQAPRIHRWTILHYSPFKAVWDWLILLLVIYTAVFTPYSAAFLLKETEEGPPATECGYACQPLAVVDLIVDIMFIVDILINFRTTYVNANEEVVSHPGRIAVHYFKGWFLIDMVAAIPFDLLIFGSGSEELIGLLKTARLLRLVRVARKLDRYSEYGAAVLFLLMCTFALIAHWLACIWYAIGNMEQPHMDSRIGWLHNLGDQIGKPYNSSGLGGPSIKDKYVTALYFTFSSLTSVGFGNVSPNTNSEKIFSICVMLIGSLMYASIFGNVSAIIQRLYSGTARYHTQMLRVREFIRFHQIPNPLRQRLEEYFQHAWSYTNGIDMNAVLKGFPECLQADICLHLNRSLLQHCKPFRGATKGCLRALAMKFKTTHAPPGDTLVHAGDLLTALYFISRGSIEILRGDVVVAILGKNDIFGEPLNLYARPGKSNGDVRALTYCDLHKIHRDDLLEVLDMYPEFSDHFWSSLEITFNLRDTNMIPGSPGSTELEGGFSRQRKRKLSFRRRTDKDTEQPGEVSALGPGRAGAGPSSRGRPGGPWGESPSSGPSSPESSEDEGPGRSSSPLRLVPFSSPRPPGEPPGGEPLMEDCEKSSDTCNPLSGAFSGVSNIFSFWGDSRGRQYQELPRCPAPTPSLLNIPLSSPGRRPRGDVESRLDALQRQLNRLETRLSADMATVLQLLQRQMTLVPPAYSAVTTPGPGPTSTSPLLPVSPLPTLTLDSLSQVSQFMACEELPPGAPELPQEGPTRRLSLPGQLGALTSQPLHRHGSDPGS

SMILES: CCCCCCCCCCn1cc(CCC(N)(CO)CO)nn1 [Compound 1a, 2-amino-2-(2-(1-decyl-1H-1,2,3-triazol-4-yl)ethyl) propane-1,3-diol]
- hygroscopicity (DVS evaluation, in words) ([1]; 90% RH, listed as Example 1): very low hygroscopicity
- DVS remark (adsorption at 90% RH) ([1]; water adsorption at 90% RH, DVS): less than 2%
- Purity % ([2]; 1-week): 99.18%
- XRPD (physical stability) ([2]; 1-week): Almost similar (some changes
- XRPD (physical stability) ([2]; 2-week): crystalline form was maintained; also recorded: Almost similar (some changes
- Purity % ([2]; Initial): 99.29%
- XRPD (physical stability) ([2]; Initial): Crystalline
- Purity % ([3]; SGF/40° C., 1-week): 99.25%
- Purity % ([3]; SGF/40° C., 2-week): 99.29%
- Purity % ([3]; SGF/40° C., Initial): 99.13%
- Purity % ([3]; Saline (0.9% NaCl)/40° C., 1-week): 99.05%
- Purity % ([3]; Saline (0.9% NaCl)/40° C., Initial): 99.20%
- Purity % ([3]; pH 1.2 HCl buffer/40° C., 1-week): 98.26%
- Purity % ([3]; pH 1.2 HCl buffer/40° C., 2-week): 98.76%
- Purity % ([3]; pH 1.2 HCl buffer/40° C., Initial): 98.92%
- Purity % ([3]; pH 4.7 acetate buffer/40° C., 1-week): 99.46%
- Purity % ([3]; pH 4.7 acetate buffer/40° C., 2-week): 99.69%
- Purity % ([3]; pH 4.7 acetate buffer/40° C., Initial): 99.23%
- Purity % ([3]; pH 6.8 phosphate buffer/40° C., 1-week): 98.36%
- Purity % ([3]; pH 6.8 phosphate buffer/40° C., Initial): 99.20%
- Purity % (Photostability test; Photostability 1.2 million lux hours exposed): 99.52%
- Purity % (Photostability test; Photostability 1.2 million lux hours unexposed): 99.70%
- clinical indicators (weight loss, stool consistency, intestinal bleeding) versus ozanimod ([4]; 5 mg/kg orally): equivalent to or higher than those of ozanimod
- clinical indicators (weight loss, stool consistency, intestinal bleeding) versus ozanimod ([4]; 10 mg/kg orally): equivalent to or higher than those of ozanimod
- Kidney hydroxyproline ([5]; 10 mg/kg/day orally): statistically significantly decreased
- Kidney hydroxyproline ([5]; 30 mg/kg/day orally): statistically significantly decreased
- Kidney hydroxyproline ([5]; 90 mg/kg/day orally): statistically significantly decreased
- Kidney hydroxyproline (second statement, 'in particular', p<0.05) ([5]; 90 mg/kg/day orally): statistically significantly decreased
- kidney hydroxyproline level compared to control group ([6]; 30 mg/kg/day orally): statistically significantly decreased
- kidney fibrosis (tubular-interstitial index) ([6]; 90 mg/kg/day orally): statistically significantly decreased
- serum BUN level ([6]; 90 mg/kg/day orally): 157.4 ± 32.3 mg/dL
- serum creatinine level ([6]; 90 mg/kg/day orally): 0.90 ± 0.12 mg/dL
- body weight versus control group [7]: no significant difference
- days when 100% alopecia areata was observed [7]: 84 days
- Hill coefficient [8]: 1.527
- compensated suppression rate (%) of hERG channel currents ([8]; 30 μM): 82.62±7.31%
